Experimental data reported in patent US12077503B2, “Substituted cyclic amides and their use as herbicides” (FMC CORPORATION, priority 2015, dated 2024).

What was measured:
Assay type in all cases: in vivo
corn (Zea mays) [1] = assay: Test G Pre-Emergence Protocol; settings: Zea mays, pre-emergence, 312 h, evaluated after 13 days; for plant injury at 15.625 g/ha: 15.625 g ai/ha; for plant injury at 15.625 g/ha / plant injury at 250 g/ha: read-out: Corn damage rating (100=total damage to plant; 0=no damage to plant); for plant injury at 62.5 g/ha: 62.5 g ai/ha, 100=total damage to plant, 0=no damage to plant, read-out: plant damage rating, Corn; for plant injury at 250 g/ha: 250 g ai/ha
How it was run: (§1)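 Scores are visual damage ratings from 0 (no damage) to 100 (total plant kill), taken 13 days after treatment. Compound was sprayed one day post-sowing at 15.625, 62.5 or 250 g/ha in 50:50 acetone/water with 0.5% Tween 20.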

[2] = tested on: ivy-leaved morning glory (Ipomoea hederacea); assay: Test G Pre-Emergence Protocol; settings: Ipomoea, pre-emergence, 312 h, evaluated after 13 days; for pest or weed control at 15.625 g/ha: 15.625 g ai/ha, read-out: Morning-glory, Ivy-leaved damage rating (100=total damage to plant; 0=no damage to plant); for pest or weed control at 62.5 g/ha: 62.5 g ai/ha, 100=total damage to plant, 0=no damage to plant, read-out: plant damage rating, Morningglory, Ivy-leaved; for pest or weed control at 250 g/ha: 250 g ai/ha, read-out: Morningglory, Ivy-leaved damage rating (100=total damage to plant; 0=no damage to plant)
How it was run: as §1

[3] = tested on: giant foxtail (Setaria faberi); assay: Test G Pre-Emergence Protocol; settings: Setaria faberi, pre-emergence, 312 h, evaluated after 13 days; for pest or weed control at 15.625 g/ha: 15.625 g ai/ha; for pest or weed control at 15.625 g/ha / pest or weed control at 250 g/ha: read-out: Foxtail, Giant damage rating (100=total damage to plant; 0=no damage to plant); for pest or weed control at 62.5 g/ha: 62.5 g ai/ha, 100=total damage to plant, 0=no damage to plant, read-out: plant damage rating, Foxtail, Giant; for pest or weed control at 250 g/ha: 250 g ai/ha
How it was run: as §1

[4] = tested on: velvetleaf (Abutilon theophrasti); assay: Test G Pre-Emergence Protocol; settings: Abutilon theophrasti, pre-emergence, 312 h, evaluated after 13 days; for pest or weed control at 15.625 g/ha: 15.625 g ai/ha; for pest or weed control at 15.625 g/ha / pest or weed control at 250 g/ha: read-out: Velvetleaf damage rating (100=total damage to plant; 0=no damage to plant); for pest or weed control at 62.5 g/ha: 62.5 g ai/ha, 100=total damage to plant, 0=no damage to plant, read-out: plant damage rating, Velvetleaf; for pest or weed control at 250 g/ha: 250 g ai/ha
How it was run: as §1

[5] = tested on: redroot pigweed (Amaranthus retroflexus); assay: Test G Pre-Emergence Protocol; settings: Amaranthus retroflexus, pre-emergence, 312 h, evaluated after 13 days; for pest or weed control at 15.625 g/ha: 15.625 g ai/ha; for pest or weed control at 15.625 g/ha / pest or weed control at 250 g/ha: read-out: Pigweed, Redroot damage rating (100=total damage to plant; 0=no damage to plant); for pest or weed control at 62.5 g/ha: 62.5 g ai/ha, 100=total damage to plant, 0=no damage to plant, read-out: plant damage rating, Pigweed, Redroot; for pest or weed control at 250 g/ha: 250 g ai/ha
How it was run: as §1

[6] = tested on: barnyardgrass (Echinochloa crus-galli); assay: Test G Pre-Emergence Protocol; settings: Echinochloa crus-galli, pre-emergence, 312 h, evaluated after 13 days; for pest or weed control at 15.625 g/ha: 15.625 g ai/ha, read-out: Barnyard grass damage rating (100=total damage to plant; 0=no damage to plant); for pest or weed control at 62.5 g/ha: 62.5 g ai/ha, 100=total damage to plant, 0=no damage to plant, read-out: plant damage rating, Barnyardgrass; for pest or weed control at 250 g/ha: 250 g ai/ha, read-out: Barnyardgrass damage rating (100=total damage to plant; 0=no damage to plant)
How it was run: as §1

corn (Zea mays) [7] = assay: Test G Post-Emergence Protocol; settings: Zea mays, post-emergence, 312 h; for plant injury at 15.625 g/ha: 15.625 g ai/ha, evaluated after 13 days (100=total damage to plant; 0=no damage to plant), read-out: Corn damage rating; for plant injury at 62.5 g/ha: 62.5 g ai/ha, read-out: Corn damage rating (100=total damage to plant; 0=no damage to plant); for plant injury at 62.5 g/ha / plant injury at 250 g/ha: evaluated after 13 days; for plant injury at 250 g/ha: 250 g ai/ha, read-out: damage to plant, Corn (100=total damage to plant; 0=no damage to plant)
How it was run: (§2)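 Sow in soil; grow 8 d (24/16 °C, 14 h light, 65% humidity); spray 15.625/62.5/250 g/ha in acetone:water 50:50 + 0.5% Tween 20; grow on, water twice daily; score damage 0–100 at 13 d.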

[8] = tested on: ivy-leaved morning glory (Ipomoea hederacea); assay: Test G Post-Emergence Protocol; settings: Ipomoea, post-emergence, 312 h; for pest or weed control at 15.625 g/ha: 15.625 g ai/ha, evaluated after 13 days (100=total damage to plant; 0=no damage to plant), read-out: Morningglory, Ivy-leaved damage rating; for pest or weed control at 62.5 g/ha: 62.5 g ai/ha, read-out: Morningglory, Ivy-leaved damage rating (100=total damage to plant; 0=no damage to plant); for pest or weed control at 62.5 g/ha / pest or weed control at 250 g/ha: evaluated after 13 days; for pest or weed control at 250 g/ha: 250 g ai/ha, read-out: damage to plant, Morningglory, Ivy-leaved (100=total damage to plant; 0=no damage to plant)
How it was run: as §2

[9] = tested on: giant foxtail (Setaria faberi); assay: Test G Post-Emergence Protocol; settings: Setaria faberi, post-emergence, 312 h; for pest or weed control at 15.625 g/ha: 15.625 g ai/ha, evaluated after 13 days (100=total damage to plant; 0=no damage to plant), read-out: Foxtail, Giant damage rating; for pest or weed control at 62.5 g/ha: 62.5 g ai/ha, read-out: Foxtail, Giant damage rating (100=total damage to plant; 0=no damage to plant); for pest or weed control at 62.5 g/ha / pest or weed control at 250 g/ha: evaluated after 13 days; for pest or weed control at 250 g/ha: 250 g ai/ha, read-out: damage to plant, Foxtail, Giant (100=total damage to plant; 0=no damage to plant)
How it was run: as §2

[10] = tested on: velvetleaf (Abutilon theophrasti); assay: Test G Post-Emergence Protocol; settings: Abutilon theophrasti, post-emergence, 312 h; for pest or weed control at 15.625 g/ha: 15.625 g ai/ha, evaluated after 13 days (100=total damage to plant; 0=no damage to plant), read-out: Velvetleaf damage rating; for pest or weed control at 62.5 g/ha: 62.5 g ai/ha, read-out: Velvetleaf damage rating (100=total damage to plant; 0=no damage to plant); for pest or weed control at 62.5 g/ha / pest or weed control at 250 g/ha: evaluated after 13 days; for pest or weed control at 250 g/ha: 250 g ai/ha, read-out: damage to plant, Velvetleaf (100=total damage to plant; 0=no damage to plant)
How it was run: as §2

[11] = tested on: redroot pigweed (Amaranthus retroflexus); assay: Test G Post-Emergence Protocol; settings: Amaranthus retroflexus, post-emergence, 312 h; for pest or weed control at 15.625 g/ha: 15.625 g ai/ha, evaluated after 13 days (100=total damage to plant; 0=no damage to plant), read-out: Pigweed, Redroot damage rating; for pest or weed control at 62.5 g/ha: 62.5 g ai/ha, read-out: Pigweed, Redroot damage rating (100=total damage to plant; 0=no damage to plant); for pest or weed control at 62.5 g/ha / pest or weed control at 250 g/ha: evaluated after 13 days; for pest or weed control at 250 g/ha: 250 g ai/ha, read-out: damage to plant, Pigweed, Redroot (100=total damage to plant; 0=no damage to plant)
How it was run: as §2

[12] = tested on: barnyardgrass (Echinochloa crus-galli); assay: Test G Post-Emergence Protocol; settings: Echinochloa crus-galli, post-emergence, 312 h; for pest or weed control at 15.625 g/ha: 15.625 g ai/ha, evaluated after 13 days (100=total damage to plant; 0=no damage to plant), read-out: Barnyardgrass damage rating; for pest or weed control at 62.5 g/ha: 62.5 g ai/ha, read-out: Barnyardgrass damage rating (100=total damage to plant; 0=no damage to plant); for pest or weed control at 62.5 g/ha / pest or weed control at 250 g/ha: evaluated after 13 days; for pest or weed control at 250 g/ha: 250 g ai/ha, read-out: damage to plant, Barnyardgrass (100=total damage to plant; 0=no damage to plant)
How it was run: as §2

## CN1C[C@H](c2cccc(C(F)F)c2)[C@@H](C(=O)Nc2ccccc2F)C1=O (racemic) [Compound 1464]
Corn (Zea mays) [1]
  plant injury at 15.625 g/ha: 0%
  plant injury at 62.5 g/ha: 50%
  plant injury at 250 g/ha: 80%
[2]
  pest or weed control at 15.625 g/ha: 0%
  pest or weed control at 62.5 g/ha: 30%
  pest or weed control at 250 g/ha: 70%
[3]
  pest or weed control at 15.625 g/ha: 80%
  pest or weed control at 62.5 g/ha: 90%
  pest or weed control at 250 g/ha: 90%
[4]
  pest or weed control at 15.625 g/ha: 0%
  pest or weed control at 62.5 g/ha: 0%
  pest or weed control at 250 g/ha: 0%
[5]
  pest or weed control at 15.625 g/ha: 0%
  pest or weed control at 62.5 g/ha: 0%
  pest or weed control at 250 g/ha: 0%
[6]
  pest or weed control at 15.625 g/ha: 80%
  pest or weed control at 62.5 g/ha: 90%
  pest or weed control at 250 g/ha: 90%
Corn (Zea mays) [7]
  plant injury at 15.625 g/ha: 20%
  plant injury at 62.5 g/ha: 10%
  plant injury at 250 g/ha: 80%
[8]
  pest or weed control at 15.625 g/ha: 10%
  pest or weed control at 62.5 g/ha: 20%
  pest or weed control at 250 g/ha: 50%
[9]
  pest or weed control at 15.625 g/ha: 70%
  pest or weed control at 62.5 g/ha: 70%
  pest or weed control at 250 g/ha: 70%
[10]
  pest or weed control at 15.625 g/ha: 10%
  pest or weed control at 62.5 g/ha: 0%
  pest or weed control at 250 g/ha: 10%
[11]
  pest or weed control at 15.625 g/ha: 10%
  pest or weed control at 62.5 g/ha: 10%
  pest or weed control at 250 g/ha: 30%
[12]
  pest or weed control at 15.625 g/ha: 20%
  pest or weed control at 62.5 g/ha: 20%
  pest or weed control at 250 g/ha: 50%

## COc1c(Cl)ccc([C@H]2CNC(=O)[C@@H]2C(=O)Nc2cccc(F)n2)c1F (racemic) [Compound 1478]
Corn (Zea mays) [1]
  plant injury at 15.625 g/ha: 0%
  plant injury at 62.5 g/ha: 0%
  plant injury at 250 g/ha: 10%
[2]
  pest or weed control at 15.625 g/ha: 0%
  pest or weed control at 62.5 g/ha: 0%
  pest or weed control at 250 g/ha: 0%
[3]
  pest or weed control at 15.625 g/ha: 0%
  pest or weed control at 62.5 g/ha: 0%
  pest or weed control at 250 g/ha: 40%
[4]
  pest or weed control at 15.625 g/ha: 0%
  pest or weed control at 62.5 g/ha: 0%
  pest or weed control at 250 g/ha: 0%
[5]
  pest or weed control at 15.625 g/ha: 0%
  pest or weed control at 62.5 g/ha: 0%
  pest or weed control at 250 g/ha: 0%
[6]
  pest or weed control at 15.625 g/ha: 0%
  pest or weed control at 62.5 g/ha: 0%
  pest or weed control at 250 g/ha: 30%
Corn (Zea mays) [7]
  plant injury at 15.625 g/ha: 0%
  plant injury at 62.5 g/ha: 10%
  plant injury at 250 g/ha: 20%
[8]
  pest or weed control at 15.625 g/ha: 0%
  pest or weed control at 62.5 g/ha: 0%
  pest or weed control at 250 g/ha: 10%
[9]
  pest or weed control at 15.625 g/ha: 10%
  pest or weed control at 62.5 g/ha: 30%
  pest or weed control at 250 g/ha: 60%
[10]
  pest or weed control at 15.625 g/ha: 0%
  pest or weed control at 62.5 g/ha: 0%
  pest or weed control at 250 g/ha: 0%
[11]
  pest or weed control at 15.625 g/ha: 0%
  pest or weed control at 62.5 g/ha: 0%
  pest or weed control at 250 g/ha: 10%
[12]
  pest or weed control at 15.625 g/ha: 10%
  pest or weed control at 62.5 g/ha: 40%
  pest or weed control at 250 g/ha: 60%
